target: integrin α2β1 (Homo sapiens, UniProt P05556+P17301); experiment: HT 1080 cell adhesion assay on rat tail collagen I; assay type: cell-based; set-up: HT1080 (human fibrosarcoma) cells (or human airway smooth muscle cells) were detached and resuspended in serum-free DMEM; endogenous in cells; host or cells: HT1080 human fibrosarcoma cells; details: HT1080 (human fibrosarcoma) cells on rat tail collagen I, absorbance at 595 nm, triplicate; read-out: IC50s from HT 1080 Cell adhesion assay
Experimental: Cell adhesion Assay: Ninety-six-well flat-bottomed tissue culture plates were coated with rat tail collagen I for 1 hour at 37° C. After incubation, wells were blocked with 1% BSA at 37° C. for 1 hour. Control wells were filled with 1% BSA. HT1080 (human fibrosarcoma) cells (or human airway smooth muscle cells) were detached and resuspended in serum-free DMEM. Cells were incubated with anti-integrin alpha2 antibody control or 10-fold dilutions of each compound with a starting concentration of 10 uM for 15 minutes at 4° C. before plating. The plates were centrifuged at 10 g for 5 minutes before incubation for 1 hour at 37° C. in humidified 5% CO2. Nonadherent cells were removed by centrifugation (top side down) at 10 g for 5 minutes. Attached cells were stained with 0.5% crystal violet, and the wells were washed with PBS. The relative number of cells in each well was evaluated after solubilization in 40 μl of 2% Triton X-100 by measuring absorbance at 595 nm in a microplate reader. All determinations were carried out in triplicate.

Chain of integrin α2β1 (P17301 30-1181): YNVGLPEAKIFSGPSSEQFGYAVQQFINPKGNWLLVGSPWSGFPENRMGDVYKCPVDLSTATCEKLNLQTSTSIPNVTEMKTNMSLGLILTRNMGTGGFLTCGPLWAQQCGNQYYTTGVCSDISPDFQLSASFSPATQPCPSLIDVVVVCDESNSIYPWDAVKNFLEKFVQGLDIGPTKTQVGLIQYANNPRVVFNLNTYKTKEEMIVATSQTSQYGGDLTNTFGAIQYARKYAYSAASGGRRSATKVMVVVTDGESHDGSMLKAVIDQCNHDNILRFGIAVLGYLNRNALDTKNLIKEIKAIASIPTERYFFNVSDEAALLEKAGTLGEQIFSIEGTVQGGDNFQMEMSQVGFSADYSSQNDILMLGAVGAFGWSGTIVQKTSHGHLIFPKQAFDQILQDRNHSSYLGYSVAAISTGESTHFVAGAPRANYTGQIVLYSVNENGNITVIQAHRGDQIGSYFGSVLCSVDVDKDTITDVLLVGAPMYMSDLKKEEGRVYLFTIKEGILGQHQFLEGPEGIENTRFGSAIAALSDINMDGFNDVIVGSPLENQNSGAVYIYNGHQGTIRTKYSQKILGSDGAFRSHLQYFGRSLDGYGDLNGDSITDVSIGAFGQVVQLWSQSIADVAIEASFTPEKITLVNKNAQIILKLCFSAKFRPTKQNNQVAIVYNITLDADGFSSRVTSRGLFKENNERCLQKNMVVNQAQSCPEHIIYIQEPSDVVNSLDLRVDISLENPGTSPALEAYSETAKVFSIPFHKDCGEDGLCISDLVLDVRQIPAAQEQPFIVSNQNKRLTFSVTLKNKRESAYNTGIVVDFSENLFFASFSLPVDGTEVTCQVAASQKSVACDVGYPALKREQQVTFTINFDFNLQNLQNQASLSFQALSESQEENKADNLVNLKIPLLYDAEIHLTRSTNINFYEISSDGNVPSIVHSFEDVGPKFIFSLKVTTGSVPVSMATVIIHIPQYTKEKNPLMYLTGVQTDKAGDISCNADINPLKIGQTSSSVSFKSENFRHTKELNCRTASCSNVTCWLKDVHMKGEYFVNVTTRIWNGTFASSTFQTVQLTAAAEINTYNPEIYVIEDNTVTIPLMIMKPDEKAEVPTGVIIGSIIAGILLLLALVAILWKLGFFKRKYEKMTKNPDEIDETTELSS
Chain of integrin α2β1 (P05556 21-798): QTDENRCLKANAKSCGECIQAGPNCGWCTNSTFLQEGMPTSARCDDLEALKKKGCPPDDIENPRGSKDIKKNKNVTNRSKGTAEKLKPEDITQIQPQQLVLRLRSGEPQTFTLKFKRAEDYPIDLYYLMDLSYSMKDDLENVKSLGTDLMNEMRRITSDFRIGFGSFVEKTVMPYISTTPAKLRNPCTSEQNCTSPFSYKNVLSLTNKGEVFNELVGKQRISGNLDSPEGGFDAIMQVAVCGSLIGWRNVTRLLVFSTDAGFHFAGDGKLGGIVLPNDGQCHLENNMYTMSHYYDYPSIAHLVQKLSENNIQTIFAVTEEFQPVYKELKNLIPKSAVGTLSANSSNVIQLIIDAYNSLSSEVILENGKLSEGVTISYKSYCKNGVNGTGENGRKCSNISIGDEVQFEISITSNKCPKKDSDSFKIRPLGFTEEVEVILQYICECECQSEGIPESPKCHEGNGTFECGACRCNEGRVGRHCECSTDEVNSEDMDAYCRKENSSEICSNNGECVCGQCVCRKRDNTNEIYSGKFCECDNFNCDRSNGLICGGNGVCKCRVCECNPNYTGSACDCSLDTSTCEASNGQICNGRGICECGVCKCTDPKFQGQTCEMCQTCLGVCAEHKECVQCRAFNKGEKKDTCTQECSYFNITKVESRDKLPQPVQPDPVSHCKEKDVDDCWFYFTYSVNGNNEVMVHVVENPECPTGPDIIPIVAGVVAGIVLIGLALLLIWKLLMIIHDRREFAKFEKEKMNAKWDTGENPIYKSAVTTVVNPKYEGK

SMILES | IC50
CCC(CC)C(=O)N[C@@H](CNC(=O)NCc1ccccc1)C(=O)O [A2-38, (S)-3-(3-benzylureido)-2-(2-ethylbutanamido)propanoic acid] | > 100 µM
CC(C)(C)NC(=O)NC[C@H](NC(=O)c1c(Cl)cccc1Cl)C(=O)O | > 100 µM
COc1cccc(CNC(=O)NC[C@H](NC(=O)c2c(Cl)cccc2Cl)C(=O)O)c1 [KZ-1-15, (S)-2-(2,6-dichlorobenzamido)-3-(3-(3-methoxybenzyl)ureido)propanoic acid] | 10 to 100 µM
O=C(NCc1ccco1)NC[C@H](NC(=O)c1c(Cl)cccc1Cl)C(=O)O [KZ-1-17, (S)-2-(2,6-dichlorobenzamido)-3-(3-(furan-2-ylmethyl)ureido)propanoic acid] | > 100 µM
CCN(CC)C(=O)NC[C@H](NC(=O)c1c(Cl)cccc1Cl)C(=O)O [A2-71, (S)-2-(2,6-dichlorobenzamido)-3-(3,3-diethylureido)propanoic acid] | > 100 µM
O=C(NCCC1C2CC3CC(C2)CC1C3)NC[C@H](NC(=O)c1c(Cl)cccc1Cl)C(=O)O (stereo partly drawn) [A2-134] | 10 to 100 µM
C[C@@H](NC(=O)NC[C@H](NC(=O)c1c(Cl)cccc1Cl)C(=O)O)c1ccccc1 [KZ-1-12, (S)-2-(2,6-dichlorobenzamido)-3-(3-((R)-1-phenylethyl)ureido)propanoic acid] | 10 to 100 µM
O=C(NCC1CCCCC1)NC[C@H](NC(=O)c1c(Cl)cccc1Cl)C(=O)O [KZ-1-22, (S)-3-(3-(cyclohexylmethyl)ureido)-2-(2,6-dichlorobenzamido)propanoic acid] | > 100 µM
O=C(NCCc1ccccc1)NC[C@H](NC(=O)c1c(Cl)cccc1Cl)C(=O)O [KZ-1-11, (S)-2-(2,6-dichlorobenzamido)-3-(3-phenethylureido)propanoic acid] | > 100 µM
O=C(NC[C@H](NC(=O)c1c(Cl)cccc1Cl)C(=O)O)N[C@H]1CCc2ccccc21 [A2-86, (S)-2-(2,6-dichlorobenzamido)-3-(3-((S)-2,3-dihydro-1H-inden-1-yl)ureido)propanoic acid] | 10 to 100 µM
CC(CC12CC3CC(CC(C3)C1)C2)NC(=O)NC[C@H](NC(=O)c1c(Cl)cccc1Cl)C(=O)O (stereo partly drawn) [A2-155, (2S)-3-(3-(1-(adamantan-1-yl)propan-2-yl)ureido)-2-(2,6-dichlorobenzamido)propanoic acid] | 10 to 100 µM
Cc1cccc(CNC(=O)NC[C@H](NC(=O)c2c(Cl)cccc2Cl)C(=O)O)c1 [KZ-1-16, (S)-2-(2,6-dichlorobenzamido)-3-(3-(3-methylbenzyl)ureido)propanoic acid] | 10 to 100 µM

Second part, the compound after the results:

IC50 | SMILES
10 to 100 µM | O=C(NCc1ccccc1Cl)NC[C@H](NC(=O)c1c(Cl)cccc1Cl)C(=O)O [KZ-1-18, (S)-3-(3-(2-chlorobenzyl)ureido)-2-(2,6-dichlorobenzamido)propanoic acid]
10 to 100 µM | O=C(NCc1ccccc1)NC[C@H](NC(=O)c1c(F)cccc1Br)C(=O)O [A2-36, (S)-3-(3-benzylureido)-2-(2-bromo-6-fluorobenzamido)propanoic acid]
10 to 100 µM | O=C(NC[C@H](NC(=O)c1c(Cl)cccc1Cl)C(=O)O)NC12CC3CC(CC(O)(C3)C1)C2 [A2-144, (S)-2-(2,6-dichlorobenzamido)-3-(3-(3-hydroxyadamantan-1-yl)ureido)propanoic acid]
< 10 µM | O=C(NC[C@H](NC(=O)c1c(Cl)cccc1Cl)C(=O)O)NC1C2CC3CC(C2)CC1C3 (stereo partly drawn) [A2-130, (S)-3-(3-(adamantan-2-yl)ureido)-2-(2,6-dichlorobenzamido)propanoic acid]
< 10 µM | O=C(NC[C@H](NC(=O)c1c(Cl)cccc1Cl)C(=O)O)N[C@@H]1CCc2ccccc21 [A2-85, (S)-2-(2,6-dichlorobenzamido)-3-(3-((R)-2,3-dihydro-1H-inden-1-yl)ureido)propanoic acid]
< 10 µM | O=C(NC[C@H](NC(=O)c1c(Cl)cccc1Cl)C(=O)O)NC1CC2CCC1C2 (stereo partly drawn) [A2-172, (2S)-3-(3-(bicyclo[2.2.1]heptan-2-yl)ureido)-2-(2,6-dichlorobenzamido)propanoic acid]

From patent publication US11597727B2 (THE REGENTS OF THE UNIVERSITY OF CALIFORNIA, priority 2018, dated 2023)
